Experimental data: ChEMBL document CHEMBL5338723, “Emerging Target-Directed Approaches for the Treatment and Diagnosis of Microbial Infections” (J Med Chem, 2023)
In brackets after ≈: the same amount, converted by molar mass.

Tests used:
Assay type in all cases: functional
Enterococcus faecalis = assay: Antimicrobial activity against vancomycin-resistant Enterococcus faecalis ATCC 51575 assessed as microbial growth inhibition
Staphylococcus aureus [1] = assay: Antimicrobial activity against methicillin-resistant Staphylococcus aureus ATCC 33591 assessed as microbial growth inhibition
Enterococcus faecium = assay: Antimicrobial activity against vancomycin-resistant Enterococcus faecium ATCC 51559 assessed as microbial growth inhibition
Staphylococcus aureus [2] = assay: Antimicrobial activity against vancomycin intermediate Staphylococcus aureus assessed as microbial growth inhibition
Acinetobacter baumannii = assay: Antimicrobial activity against Acinetobacter baumannii ATCC 17978 assessed as microbial growth inhibition under iron-deficient condition
Salmonella enteritidis = assay: Antimicrobial activity against Salmonella enterica subsp. enterica serovar Enteritidis assessed as increase in microbial growth inhibition
Salmonella typhimurium = assay: Antimicrobial activity against Salmonella enterica subsp. enterica serovar Typhimurium assessed as increase in microbial growth inhibition

| MIC (Acinetobacter baumannii) [µg/mL] | MIC (Salmonella enteritidis) [µM] | MIC (Salmonella typhimurium) [µM] | SMILES | further results |
| --- | --- | --- | --- | --- |
| 0.5 (≈ 0.481 µM) | – | – | CC(=O)N(O)CCCCNC(=O)[C@H](COC(=O)c1cccc(O)c1O)NC(=O)[C@H]1N=C(c2cc(CCCCC(=O)N[C@@H](C(=O)N[C@@H]3C(=O)N4C(C(=O)O)=C(Cl)CS[C@H]34)c3ccccc3)cc(O)c2O)O[C@@H]1C | – |
| 0.5 (≈ 0.532 µM) | – | – | C[C@H]1OC(c2cccc(O)c2O)=N[C@@H]1C(=O)N[C@@H](COC(=O)c1cccc(O)c1O)C(=O)NCCCCN(O)C(=O)N[C@@H](C(=O)N[C@@H]1C(=O)N2C(C(=O)O)=C(Cl)CS[C@H]12)c1ccccc1 | – |
| – | 0.01 | 0.01 | CC1(C)S[C@@H]2[C@H](NC(=O)[C@H](NC(=O)CCCc3cn(CCOCCOCCOCCNC(=O)c4cc(O)c(O)c(C(=O)N[C@H]5COC(=O)[C@@H](NC(=O)c6cccc(O)c6O)COC(=O)[C@@H](NC(=O)c6cccc(O)c6O)COC5=O)c4)nn3)c3ccccc3)C(=O)N2[C@H]1C(=O)O | – |
| – | 0.01 | 0.01 | CC1(C)S[C@@H]2[C@H](NC(=O)[C@H](NC(=O)CCCc3cn(CCOCCOCCOCCNC(=O)c4cc(O)c(O)c(C(=O)N[C@H]5COC(=O)[C@@H](NC(=O)c6cc([C@@H]7O[C@H](CO)[C@@H](O)[C@H](O)[C@H]7O)cc(O)c6O)COC(=O)[C@@H](NC(=O)c6cc([C@@H]7O[C@H](CO)[C@@H](O)[C@H](O)[C@H]7O)cc(O)c6O)COC5=O)c4)nn3)c3ccccc3)C(=O)N2[C@H]1C(=O)O | – |
| – | 0.01 | 0.01 | CC1=C(C(=O)O)N2C(=O)[C@@H](NC(=O)[C@H](NC(=O)CCCc3cn(CCOCCOCCOCCNC(=O)c4cc(O)c(O)c(C(=O)N[C@H]5COC(=O)[C@@H](NC(=O)c6cc([C@@H]7O[C@H](CO)[C@@H](O)[C@H](O)[C@H]7O)cc(O)c6O)COC(=O)[C@@H](NC(=O)c6cc([C@@H]7O[C@H](CO)[C@@H](O)[C@H](O)[C@H]7O)cc(O)c6O)COC5=O)c4)nn3)c3ccccc3)[C@H]2SC1 | – |

Second part, the compound before the results:

| SMILES | MIC (Acinetobacter baumannii) [µg/mL] | MIC (Salmonella enteritidis) [µM] | MIC (Salmonella typhimurium) [µM] | further results |
| --- | --- | --- | --- | --- |
| CCCCCCCCCCN[C@@]1(C)C[C@H](O[C@H]2[C@H](Oc3c4cc5cc3Oc3ccc(cc3Cl)[C@@H](O)[C@@H](NC(=O)[C@@H](CC(C)C)NC)C(=O)N[C@@H](CC(N)=O)C(=O)N[C@H]5C(=O)N[C@H]3C(=O)N[C@H](C(=O)N[C@H](C(=O)NCCCNC(=O)[C@H](O)[C@@H](O)[C@H](O[C@H]5O[C@@H](CO)[C@@H](O)[C@@H](O)[C@@H]5O)[C@H](O)CO)c5cc(O)cc(O)c5-c5cc3ccc5O)[C@H](O)c3ccc(c(Cl)c3)O4)O[C@H](CO)[C@@H](O)[C@@H]2O)O[C@@H](C)[C@H]1O | – | – | – | MIC (Enterococcus faecalis): 0.2 µM (≈ 0.397 µg/mL); MIC (Staphylococcus aureus [1]): 0.2 µM (≈ 0.397 µg/mL); MIC (Enterococcus faecium): 0.2 µM (≈ 0.397 µg/mL); MIC (Staphylococcus aureus [2]): 0.2 µM (≈ 0.397 µg/mL) |
| C[C@@H](O)[C@H]1C(=O)N2C(C(=O)O)=C(S[C@H]3C[C@@H](C(=O)N(C)C)N(C(=O)CCCc4cn(CCOCCOCCOCCNC(=O)c5cc(O)c(O)c(C(=O)N[C@H]6COC(=O)[C@@H](NC(=O)c7cc([C@@H]8O[C@H](CO)[C@@H](O)[C@H](O)[C@H]8O)cc(O)c7O)COC(=O)[C@@H](NC(=O)c7cc([C@@H]8O[C@H](CO)[C@@H](O)[C@H](O)[C@H]8O)cc(O)c7O)COC6=O)c5)nn4)C3)[C@H](C)[C@H]12 | – | 0.01 | 0.01 | – |
| CC1=C(C(=O)O)N2C(=O)[C@@H](NC(=O)[C@H](NC(=O)CCCc3cn(CCOCCOCCOCCNC(=O)c4cc(O)c(O)c(C(=O)N[C@H]5COC(=O)[C@@H](NC(=O)c6cccc(O)c6O)COC(=O)[C@@H](NC(=O)c6cccc(O)c6O)COC5=O)c4)nn3)c3ccccc3)[C@H]2SC1 | – | 0.01 | 0.01 | – |
| N[C@@H](C(=O)N[C@@H]1C(=O)N2C(C(=O)O)=C(Cl)CS[C@H]12)c1ccccc1 [CEFACLOR ANHYDROUS] | 64 (≈ 174 µM) | – | – | – |
| C[C@H]1OC(c2cccc(O)c2O)=N[C@@H]1C(=O)N[C@@H](COC(=O)c1cc(N[C@@H](C(=O)N[C@@H]2C(=O)N3C(C(=O)O)=C(Cl)CS[C@H]23)c2ccccc2)cc(O)c1O)C(=O)NCCCCN(O)C=O | 0.5 (≈ 0.532 µM) | – | – | – |
